In patent US12091411B2, “IRAK degraders and uses thereof” (Kymera Therapeutics, Inc., priority 2022, dated 2024):
Like-named read-outs stand apart in the source and are kept apart here.

Biological target: T1, IRAK4 (Homo sapiens, UniProt Q9NWZ3)
T1 construct: Degradation of IRAK4 in OCI-LY10 was quantitatively measured using Meso Scale Discovery technology; endogenous in cells; host or cells: OCI-LY10
T1 sequence (Q9NWZ3 1-460): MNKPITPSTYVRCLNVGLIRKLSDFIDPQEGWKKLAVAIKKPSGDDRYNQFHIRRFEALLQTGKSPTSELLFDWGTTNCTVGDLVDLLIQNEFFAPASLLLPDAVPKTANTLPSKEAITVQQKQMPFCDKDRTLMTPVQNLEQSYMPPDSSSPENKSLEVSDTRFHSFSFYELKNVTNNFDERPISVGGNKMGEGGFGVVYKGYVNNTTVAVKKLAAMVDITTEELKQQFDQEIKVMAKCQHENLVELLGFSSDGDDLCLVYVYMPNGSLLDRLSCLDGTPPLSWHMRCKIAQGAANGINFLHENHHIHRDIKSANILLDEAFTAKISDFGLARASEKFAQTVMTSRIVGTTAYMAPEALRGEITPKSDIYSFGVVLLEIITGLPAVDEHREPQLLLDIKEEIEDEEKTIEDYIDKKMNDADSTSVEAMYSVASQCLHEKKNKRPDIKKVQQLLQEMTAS
Assay: IRAK4 MSD Degradation in OCI-LY10
Type: cell-based
Details: OCI-LY10 cells
Method in brief: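 OCI-LY10 cells exposed to 8-point 1:3 compound series (top 1 to 10 μM) for 4 to 24 h at 37 °C, 5% CO2. Lysate IRAK4 quantified by MSD sandwich immunoassay. DC50 from three-parameter logistic fit, binned A (<0.01 μM) to D (>0.2 μM or not tested).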

[1] = 4 hrs incubation, MSD, read-out: IRAK4 degradation in OCI-LY10 at 4 hrs: DC50
[2] = 24 hrs incubation, MSD, read-out: IRAK4 degradation in OCI-LY10 at 24 hrs: DC50
[3] = 4 hrs incubation, read-out: IRAK4 degradation in OCI-LY10 at 4 hrs: DC50
[4] = 24 hrs incubation, read-out: IRAK4 degradation in OCI-LY10 at 24 hrs: DC50

Row | SMILES | DC50 [1] [nM] | DC50 [2] [nM] | DC50 [3] [nM] | DC50 [4] [nM]
1 | Cn1c(=O)n(C2CCC(=O)NC2=O)c2cccc(N3CCN(C(=O)C[C@]4(O)CC[C@@H](n5cc(NC(=O)c6cnn7cccnc67)c(C(F)F)n5)CC4)CC3)c21 (stereo partly drawn) [I-763] | > 200 | > 200 | – | –
2 | Cn1c(=O)n(C2CCC(=O)NC2=O)c2cccc(N3CCN(C(=O)C[C@]4(O)CC[C@@H](n5cc6cc(NC(=O)c7cccc(C(F)(F)F)n7)ncc6n5)CC4)CC3)c21 (stereo partly drawn) [I-764] | > 200 | > 200 | – | –
3 | COc1cc(NC(=O)c2cccc(C(F)(F)F)n2)cc2cn([C@H]3CC[C@H](CN4CCN(c5c(F)ccc6c5n(C)c(=O)n6C5CCC(=O)NC5=O)CC4)CC3)nc12 (stereo partly drawn) [I-765] | > 200 | > 200 | – | –
4 | COc1nc(NC(=O)c2cccc(C(F)(F)F)n2)cc2cn([C@H]3CC[C@H](CN4CCN(c5cccc6c5n(C)c(=O)n6C5CCC(=O)NC5=O)CC4)CC3)nc12 (stereo partly drawn) [I-766] | > 200 | > 200 | – | –
5 | Cn1c(NC(=O)c2cccc(C(F)(F)F)n2)cc2cn([C@H]3CC[C@H](CN4CCN(c5cccc6c5n(C)c(=O)n6C5CCC(=O)NC5=O)CC4)CC3)nc2c1=O (stereo partly drawn) [I-767] | > 200 | > 200 | – | –
6 | Cc1cccc(C(=O)Nc2cc3cn([C@H]4CC[C@H](CN5CC[C@@H](c6cccc7c6n(C)c(=O)n7C6CCC(=O)NC6=O)[C@H](F)C5)CC4)nc3c(=O)n2C)n1 (stereo partly drawn) [I-768] | > 200 | > 200 | – | –
7 | COc1nc(NC(=O)c2cccc(C(F)(F)F)n2)cc2cn([C@H]3CC[C@H](CN4CCC(c5cccc6c5n(C)c(=O)n6C5CCC(=O)NC5=O)C(F)(F)C4)CC3)nc12 (stereo partly drawn) [I-769] | > 200 | > 200 | – | –
8 | COc1nc(NC(=O)c2cccc(C)n2)cc2cn([C@H]3CC[C@H](CN4CCC(c5cccc6c5n(C)c(=O)n6C5CCC(=O)NC5=O)C(F)(F)C4)CC3)nc12 (stereo partly drawn) [I-770] | > 200 | > 200 | – | –
9 | Cn1c(NC(=O)c2cccc(C(F)(F)F)n2)cc2cn([C@H]3CC[C@H](CN4CCC(c5cccc6c5n(C)c(=O)n6C5CCC(=O)NC5=O)C(F)(F)C4)CC3)nc2c1=O (stereo partly drawn) [I-771] | > 200 | > 200 | – | –
10 | Cc1cccc(C(=O)Nc2cc3cn([C@H]4CC[C@H](CN5CCC(c6cccc7c6n(C)c(=O)n7C6CCC(=O)NC6=O)C(F)(F)C5)CC4)nc3c(=O)n2C)n1 (stereo partly drawn) [I-772] | > 200 | > 200 | – | –
11 | COc1nc(NC(=O)c2cccc(C(F)(F)F)n2)cc2cn([C@H]3CC[C@H](CN4CC[C@@H](c5cccc6c5n(C)c(=O)n6C5CCC(=O)NC5=O)[C@H](F)C4)CC3)nc12 (stereo partly drawn) [I-773] | > 200 | > 200 | – | –
12 | COc1nc(NC(=O)c2cccc(C(F)(F)F)n2)cc2cn([C@H]3CC[C@H](CN4CC[C@H](c5cccc6c5n(C)c(=O)n6C5CCC(=O)NC5=O)[C@@H](F)C4)CC3)nc12 (stereo partly drawn) [I-774] | > 200 | > 200 | – | –
13 | COc1nc(NC(=O)c2cccc(C)n2)cc2cn([C@H]3CC[C@H](CN4CC[C@@H](c5cccc6c5n(C)c(=O)n6C5CCC(=O)NC5=O)[C@H](F)C4)CC3)nc12 (stereo partly drawn) [I-775] | > 200 | > 200 | – | –
14 | Cn1c(NC(=O)c2cccc(C(F)(F)F)n2)cc2cn([C@H]3CC[C@H](CN4CC[C@@H](c5cccc6c5n(C)c(=O)n6C5CCC(=O)NC5=O)[C@H](F)C4)CC3)nc2c1=O (stereo partly drawn) [I-776] | > 200 | > 200 | – | –
15 | Cn1c(=O)n(C2CCC(=O)NC2=O)c2cccc(N3CCC(C[C@H]4CC[C@H](n5cc6cc(NC(=O)c7cccc(C(F)(F)F)n7)ncc6n5)CC4)CC3)c21 (stereo partly drawn) [I-777] | > 200 | > 200 | – | –
16 | O=C1CCC(c2ccc(N3CC(CN4CCN(C[C@H]5CC[C@H](n6cc(NC(=O)c7cnn8ccc(N9C[C@H]%10C[C@@H]9CO%10)nc78)c(C(F)F)n6)CC5)CC4)C3)cc2Cl)C(=O)N1 (stereo partly drawn) [I-778] | > 200 | > 200 | – | –

Row | SMILES | DC50 [1] [nM] | DC50 [2] [nM] | DC50 [3] [nM] | DC50 [4] [nM]
17 | O=C1CCC(c2ccc(N3CC(N4CCN([C@H]5CC[C@H](n6cc(NC(=O)c7cnn8ccc(N9C[C@H]%10C[C@@H]9CO%10)nc78)c(C(F)F)n6)CC5)CC4)C3)cc2Cl)C(=O)N1 (stereo partly drawn) [I-779] | > 200 | > 200 | – | –
18 | O=C1CCC(c2ccc([C@H]3C[C@H](CO[C@H]4CCN(C[C@H]5CC[C@H](n6cc(NC(=O)c7cnn8ccc(N9C[C@H]%10C[C@@H]9CO%10)nc78)c(C(F)F)n6)CC5)C[C@H]4F)C3)cc2Cl)C(=O)N1 (stereo partly drawn) [I-780] | > 200 | > 200 | – | –
19 | COc1cc2nn([C@H]3CC[C@H](CN4CC[C@@H](c5cccc6c5n(C)c(=O)n6C5CCC(=O)NC5=O)[C@H](F)C4)CC3)cc2cc1NC(=O)c1cccc(C(F)(F)F)n1 (stereo partly drawn) [I-783] | > 200 | > 200 | – | –
20 | COc1cc2nn([C@H]3CC[C@H](CN4CC[C@H](c5cccc6c5n(C)c(=O)n6C5CCC(=O)NC5=O)[C@@H](F)C4)CC3)cc2cc1NC(=O)c1cccc(C(F)(F)F)n1 (stereo partly drawn) [I-784] | > 200 | > 200 | – | –
21 | Cn1c(=O)n(C2CCC(=O)NC2=O)c2cccc(N3CC(CCC4(F)CN(C[C@H]5CC[C@H](n6cc(NC(=O)c7cnn8ccc(N9C[C@H]%10C[C@@H]9CO%10)nc78)c(C(F)F)n6)CC5)C4)C3)c21 (stereo partly drawn) [I-785] | > 200 | > 200 | – | –
22 | Cn1c(=O)n(C2CCC(=O)NC2=O)c2cccc(N3CCC(OC[C@H]4CC[C@H](n5cc(NC(=O)c6cnn7cccnc67)c(C(F)F)n5)CC4)CC3)c21 (stereo partly drawn) [I-786] | > 200 | – | – | –
23 | CN(CC1(F)CCN(c2cccc3c2n(C)c(=O)n3C2CCC(=O)NC2=O)CC1)C1CCC(n2cc3cc(NC(=O)c4cccc(C(F)(F)F)n4)ncc3n2)CC1 (stereo not drawn) [I-787] | > 200 | > 200 | – | –
24 | CN(CC1(F)CCN(c2cccc3c2n(C)c(=O)n3C2CCC(=O)NC2=O)CC1)C1CCC(n2cc3cc(NC(=O)c4cccc(C(F)(F)F)n4)ccc3n2)CC1 (stereo not drawn) [I-788] | > 200 | > 200 | – | –
25 | Cn1c(=O)n(C2CCC(=O)NC2=O)c2cccc(N3CC(F)(CN(C)[C@H]4CC[C@H](n5cc6cc(NC(=O)c7cccc(C(F)(F)F)n7)ncc6n5)CC4)C3)c21 (stereo partly drawn) [I-789] | > 200 | > 200 | – | –
26 | Cn1c(=O)n(C2CCC(=O)NC2=O)c2cccc(N3CC(F)(CN(C)[C@H]4CC[C@H](n5cc6cc(NC(=O)c7cccc(C(F)(F)F)n7)ccc6n5)CC4)C3)c21 (stereo partly drawn) [I-790] | > 200 | > 200 | – | –
27 | Cn1c(=O)n(C2CCC(=O)NC2=O)c2cccc(N3CCC(O[C@H]4CC[C@H](n5cc6cc(NC(=O)c7cccc(C(F)(F)F)n7)ncc6n5)CC4)CC3)c21 (stereo partly drawn) [I-791] | > 200 | > 200 | – | –
28 | Cn1c(=O)n(C2CCC(=O)NC2=O)c2cccc(N3CCC(O[C@H]4CC[C@H](n5cc6cc(NC(=O)c7cccc(C(F)(F)F)n7)ccc6n5)CC4)CC3)c21 (stereo partly drawn) [I-792] | > 200 | > 200 | – | –
29 | Cn1c(=O)n(C2CCC(=O)NC2=O)c2cccc(N3CCC(O[C@H]4CC[C@H](n5cc6cc(NC(=O)c7cccc(C(F)(F)F)n7)ncc6n5)CC4)C3)c21 (stereo partly drawn) [I-793] | > 200 | > 200 | – | –
30 | Cn1c(=O)n(C2CCC(=O)NC2=O)c2cccc(N3CCC(O[C@H]4CC[C@H](n5cc6cc(NC(=O)c7cccc(C(F)(F)F)n7)ccc6n5)CC4)C3)c21 (stereo partly drawn) [I-794] | – | – | > 200 | > 200
31 | Cn1c(=O)n(C2CCC(=O)NC2=O)c2cccc(N3CC(O[C@H]4CC[C@H](n5cc6cc(NC(=O)c7cccc(C(F)(F)F)n7)ncc6n5)CC4)C3)c21 (stereo partly drawn) [I-795] | – | – | > 200 | > 200
32 | Cn1c(=O)n(C2CCC(=O)NC2=O)c2cccc(N3CC(O[C@H]4CC[C@H](n5cc6cc(NC(=O)c7cccc(C(F)(F)F)n7)ccc6n5)CC4)C3)c21 (stereo partly drawn) [I-796] | – | – | > 200 | > 200
